Measured values published in US6004960A, “Pyridazinones as inhibitors of cyclooxygenase-2” (Merck Frosst Canada, Inc., priority 1998, dated 1999).

Columns and labels:
COX-1 [1] = biological target: T1, COX-1 (Homo sapiens, UniProt P23219); assay: Assay of COX-1 activity from U937 cell microsomes; assay type: biochemical; set-up: Assay of COX-1 Activity from U937 cell microsomes; endogenous in cells; host or cells: U937 cells, 100,000×g microsomal pellet; conditions: PGE2, read-out: COX-1 (IC50 μM) U-937
Method: Assay of COX-1 Activity from U937 cell microsomes
U 937 cells are pelleted by centrifugation at 500×g for 5 min and washed once with phosphate-buffered saline and repelleted. […] The cell suspension is sonicated 4 times for 10 sec and is centrifuged at 10,000×g for 10 min at 4° C. The supernatant is centrifuged at 100,000×g for 1 hr at 4° C. The 100,000×g microsomal pellet is resuspended in 0.1 M Tris-HCl, pH 7.4, 10 mM EDTA to approximately 7 mg protein/ml and stored at -80° C.
Microsomal preparations are thawed immediately prior to use, subjected to a brief sonication, and then diluted to a protein concentration of 125 μg/ml in 0.1 M Tris-HCl buffer, pH 7.4 containing 10 mM EDTA, 0.5 mM phenol, 1 mM reduced glutathione and 1 μM hematin. Assays are performed in duplicate in a final volume of 250 pl. Initially, 5 µl of DMSO vehicle or drug in DMSO are added to 20 μl of 0.1 M Tris-HCl buffer, pH 7.4 containing 10 mM EDTA in wells of a 96-deepwell polypropylene titre plate. 200 μl of the microsomal preparation are then added and pre-incubated for 15 min at room temperature before addition of 25 μl of […] in 0.1 M Tris-HCl and 10 mM EDTA, pH 7.4. Samples are incubated for 40 min at room temperature and the reaction is stopped by the addition of 25 pl of 1 N HCl. Samples are neutralized with 25 μl of 1 N NaOH prior to quantitation of PGE2 content by radioimmunoassay (Dupont-NEN or Amersham assay kits). Cyclooxygenase activity is defined as the difference between PGE2 levels in samples incubated in the presence of arachidonic acid and ethanol vehicle.
(§1) In the assay, inhibition is determined by measuring the amount of prostaglandin E2 (PGE2) synthesized in the presence of arachidonic acid, cyclooxygenase-I or cyclooxygenase-2 and a putative inhibitor.

COX-1 [2] = biological target: T1, COX-1; assay: Human whole blood assay, COX-1 (clotting-induced TxB2 production); assay type: cell-based; set-up: platelets in whole blood contain a large amount of the COX-1 enzyme; from tissue; host or cells: fresh human whole blood (platelets), allowed to clot; conditions: clotting-induced TxB2, 1 hour at 37° C, read-out: COX-1 (IC50 μM) HWB
Method: Human whole blood provides a protein and cell-rich milieu appropriate for the study of biochemical efficacy of anti-inflammatory compounds such as selective COX-2 inhibitors. […] This is consistent with the observation that COX-2 inhibitors have no effect on PGE2 production in normal blood. These inhibitors are active only after incubation of human whole blood with LPS, which induces COX-2. This assay can be used to evaluate the inhibitory effect of selective COX-2 inhibitors on PGE2 production. As well, platelets in whole blood contain a large amount of the COX-1 enzyme. Immediately following blood clotting, platelets are activated through a thrombin-mediated mechanism. This reaction results in the production of thromboxane B2 (TxB2) via activation of COX-1. Thus, the effect of test compounds on TxB2 levels following blood clotting can be examined and used as an index for COX-1 activity. Therefore, the degree of selectivity by the test compound can be determined by measuring the levels of PGE2 after LPS induction (COX-2) and […] following blood clotting (COX-1) in the same assay.
B. COX-1 (Clotting-induced TxB2 production)
Fresh blood is collected into vacutainers containing no anticoagulants. […] The tubes are vortexed and incubated at 37° C. for 1 hour to allow blood to clot. At the end of incubation, serum is obtained by centrifugation (12,000×g for 5 min.). A 100 μL aliquot of serum is mixed with 400 μL of methanol for protein precipitation. The supernatant is obtained and is assayed for T×B2 using a enzyme immunoassay kit (Cayman, #519031) according to the manufacturer's instruction.

COX-2 [3] = biological target: T2, COX-2 (Homo sapiens, UniProt P35354); assay: Whole cell assay for COX-2 using CHO transfected cell line (CHO [hCOX-2]), PGE2; assay type: cell-based; set-up: expressed in transfected cells; host or cells: CHO (Chinese hamster ovary), stably transfected with pCDNAIII vector; CHO [hCOX-2]; conditions: CHO [hCOX-2] cells, 10 μM AA
T2 sequence (P35354 18-604): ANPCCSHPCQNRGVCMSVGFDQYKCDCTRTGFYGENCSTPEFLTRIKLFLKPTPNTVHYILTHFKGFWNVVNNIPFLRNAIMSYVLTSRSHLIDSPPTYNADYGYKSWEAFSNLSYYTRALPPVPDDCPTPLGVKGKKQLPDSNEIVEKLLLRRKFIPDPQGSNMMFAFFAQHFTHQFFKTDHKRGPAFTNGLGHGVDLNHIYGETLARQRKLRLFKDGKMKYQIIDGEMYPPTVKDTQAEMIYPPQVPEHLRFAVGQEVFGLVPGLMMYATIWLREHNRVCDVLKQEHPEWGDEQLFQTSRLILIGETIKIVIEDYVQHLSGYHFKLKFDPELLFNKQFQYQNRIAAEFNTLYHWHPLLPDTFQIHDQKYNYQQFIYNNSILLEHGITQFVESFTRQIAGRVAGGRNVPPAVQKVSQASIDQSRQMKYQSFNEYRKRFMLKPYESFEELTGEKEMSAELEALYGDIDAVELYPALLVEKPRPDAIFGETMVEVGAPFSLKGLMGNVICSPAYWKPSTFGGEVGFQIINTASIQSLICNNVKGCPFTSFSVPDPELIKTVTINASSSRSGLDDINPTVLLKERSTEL
Method: Chinese hamster ovary (CHO) cell lines which have been stably transfected with an eukaryotic expression vector pCDNAIII containing either the human COX-1 or COX-2 cDNA's are used for the assay. These cell lines are referred to as CHO [hCOX-1] and CHO [hCOX-2], respectively. […] Drugs to be tested are dissolved in DMSO to 66.7-fold the highest test drug concentration. […] Cells (0.3×10^6 cells in 200 p) are preincubated with 3 AIl of the test drug or DMSO vehicle for 15 min at 37° C. […] Cells are then challenged in the presence or absence of drug with the AA/HBSS solution to yield a final concentration of 0.5 μM AA in the CHOhCOX-1] assay and a final concentration of 10 μM AA in the CHO [hCOX-2] assay. […] The samples are centrifuged at 300×g at 4° C. for 10 min, and an aliquot of the clarified supernatant is appropriately diluted for the determination of PGE2 levels using an enzyme-liked immunoassay for PGE2 (Correlate PGE2 enzyme immunoassay kit, Assay Designs, Inc.). Cyclooxygenase activity in the absence of test compounds is determined as the difference in PGE2 levels of cells challenged with arachidonic acid versus the PGE2 levels in cells mock-challenged with ethanol vehicle. Inhibition of PGE2 synthesis by test compounds is calculated as a percentage of the activity in the presence of drug versus the activity in the positive control samples.
as §1

COX-2 [4] = biological target: T2, COX-2; assay: Human whole blood assay, COX-2 (LPS-induced PGE2 production); assay type: cell-based; set-up: incubation of human whole blood with LPS, which induces COX-2; from tissue; host or cells: fresh human whole blood (volunteers), incubated with LPS; conditions: LPS-induced PGE2, 24 hours at 37° C, read-out: COX-2 (IC50 μM) HWB
Text: As well, platelets in whole blood contain a large amount of the COX-1 enzyme. Immediately following blood clotting, platelets are activated through a thrombin-mediated mechanism. This reaction results in the production of thromboxane B2 (TxB2) via activation of COX-1. Thus, the effect of test compounds on TxB2 levels following blood clotting can be examined and used as an index for COX-1 activity. Therefore, the degree of selectivity by the test compound can be determined by measuring the levels of PGE2 after LPS induction (COX-2) and […] following blood clotting (COX-1) in the same assay.
A. COX-2 (LPS-induced PGE2 production)
Fresh blood is collected in heparinized tubes by venipuncture from both male and female volunteers. The subjects have no apparent inflammatory conditions and have not taken any NSAIDs for at least 7 days prior to blood collection. Plasma is immediately obtained from a 2mL blood aliquot to use as blank (basal levels of PGE2). The remaining blood is incubated with LPS (100 μg/ml final concentration, Sigma Chem, #L-2630 from E. coli; diluted in 0.1% BSA (Phosphate buffered saline) for 5 minutes at room temperature. Five hundred μL aliquots of blood are incubated with either 2μL of vehicle (DMSO) or 2 μL of a test compound at final concentrations varying from 10nM to 30 μM for 24 hours at 37° C. At the end of the incubation, the blood is centrifuged at 12,000×g for 5 minutes to obtain plasma. A 100 μL aliquot of plasma is mixed with 400 μL of methanol for protein precipitation. The supernatant is obtained and is assayed for PGE2 using a radioimmunoassay kit (Amersham, RPA#530) after conversion of PGE2 to its methyl oximate derivative according to the manufacturer's procedure. […]

T1 sequence (P23219 24-599): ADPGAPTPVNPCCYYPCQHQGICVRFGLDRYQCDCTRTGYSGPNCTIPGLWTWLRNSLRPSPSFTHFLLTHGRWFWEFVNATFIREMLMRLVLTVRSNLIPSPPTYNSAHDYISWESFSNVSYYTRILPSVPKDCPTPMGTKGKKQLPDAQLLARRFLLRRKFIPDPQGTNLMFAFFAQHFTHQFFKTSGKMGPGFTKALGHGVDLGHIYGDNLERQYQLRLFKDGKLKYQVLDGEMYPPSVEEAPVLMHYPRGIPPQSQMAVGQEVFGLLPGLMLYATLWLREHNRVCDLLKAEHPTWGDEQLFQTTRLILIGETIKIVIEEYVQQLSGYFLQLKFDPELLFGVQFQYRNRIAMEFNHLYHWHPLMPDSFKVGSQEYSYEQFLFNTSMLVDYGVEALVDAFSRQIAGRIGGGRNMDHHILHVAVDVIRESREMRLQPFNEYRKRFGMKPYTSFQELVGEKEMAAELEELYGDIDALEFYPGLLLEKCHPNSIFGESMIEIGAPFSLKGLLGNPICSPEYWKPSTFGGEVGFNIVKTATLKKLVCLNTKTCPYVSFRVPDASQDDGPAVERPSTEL

Row | SMILES | IC50 (COX-1 [1]) | IC50 (COX-1 [2]) | IC50 (COX-2 [3]) | IC50 (COX-2 [4])
1 | CS(=O)(=O)c1ccc(-c2cnn(Cc3ccccc3)c(=O)c2Oc2ccc(F)cc2)cc1 [Example 22, 2-Benzyl-4-(4-fluorophenoxy)-5-(4-methylsulfonyl)phenyl-2H-pyridazin-3-one] | 0.3 to 1 µM | 9 µM | – | –
2 | CC(C)Oc1c(-c2ccc(S(C)(=O)=O)cc2)cnn(Cc2ccccc2)c1=O [Example 21, 2-Benzyl-4-(2-propoxy)-5-(4-methylsulfonyl)phenyl-2H-pyridazin-3-one] | – | > 100 µM | – | –
3 | CC(c1ccccc1)n1ncc(-c2ccc(S(C)(=O)=O)cc2)c(-c2ccc(F)cc2)c1=O (stereo not drawn) [Example 25, 4-(4-Fluorophenyl)-5-(4-methylsulfonyl)phenyl-2-(1-phenyl-ethyl)-2H-pyridazin-3-one] | ~1 µM | – | 0.49 µM | 1.4 µM
